Test results reported in patent US20240316017A1, “NOVEL PYRIDINE DERIVATIVE COMPOUND AS RON INHIBITOR” (LG CHEM, LTD., priority 2021, published 2024).

Experiments:
RON = RON (Homo sapiens, UniProt Q04912); assay: Evaluation of inhibitory activity against RON (TR-FRET kinase assay); format: biochemical; conditions: RON protein, ULight-labeled Poly GT substrate
Experimental: In order to measure the inhibitory activity of each of the compounds of Examples against RON, the IC50 of each of the compounds was measured using Time-resolved fluorescence energy transfer (TR-FRET).
(§1) Specifically, the compound was prepared to a concentration of 1 mM in 100% DMSO and was diluted 10 times in a stepwise manner through 3-fold dilution. The compound (2 ul) diluted in a stepwise manner was added to a 96-well-plate containing 48 ul of a 1× kinase reaction buffer (50 mM HEPES (pH 7.4), 0.01% Tween-20, 5 mM DTT, 0.5 mM Na3VO4, 2 mM EGTA, 10 mM MgCl2).
The RON protein was diluted to a concentration of 49.3 nM in a RON storage buffer (50 mM Tris-HCl (pH 7.5), 150 mM NaCl, 0.5 mM EDTA, 0.02% Triton X-100), and then diluted again to a concentration of 0.4 nM in a 1×kinase reaction buffer. As a substrate cocktail, a RON-specific substrate mixed solution (40 uM ULight-labeled Poly GT, 100 nM ATP) was prepared at a concentration 2 times the final reaction concentration.
(§2) Thereafter, a 384-well-plate was prepared, and 2.5 μl of each of the diluted compounds of Examples was added to a corresponding well of experimental group wells, and 2.5 μl of a 4% DMSO solution was dispensed into high control wells and low control wells.
(§3) Thereafter, 2.5 μL of 0.4 nM RON was dispensed into each of the high control wells and the experimental group wells, and 2.5 μL of the 1× kinase reaction buffer was added to the low control wells, and all the wells were centrifuged at room temperature for 40 seconds at 1,000 RPM, and then incubated at room temperature for 20-30 minutes. Then, 5 uL of the substrate cocktail (2×) was dispensed into each well, and all the wells were centrifuged at room temperature for 40 seconds at 1,000 RPM, and then incubated at room temperature for 60 minutes. Thereafter, 5 uL of 30 mM EDTA was added to each well to terminate the reaction, and all the wells were then incubated again at room temperature for 5 minutes. Thereafter, 5 uL of a 4× phosphotyrosine antibody (Perkin Elmer) containing europium was added to each well, and all the wells were then incubated at room temperature for 60 minutes. After the incubation, the 384-well-plate was read with the Vison plate reader. In this case, the excitation wavelength was 340 nm, and the emission wavelength was 620 nm and 665 nm. The IC50 value of each compound of Examples was derived using the GraphPd Prism7 program.

cMET = cMET (Homo sapiens, UniProt P08581); assay: Evaluation of inhibitory activity against MET (TR-FRET kinase assay); format: biochemical; conditions: cMET protein, TK peptide substrate
Experimental: In addition, in order to measure the enzyme activity inhibition for cMET, the evaluation was performed in the same manner as the enzyme activity inhibition measurement experiment for RON.
as §1, with “7.4), 0.05% BSA, 0.005%” for “7.4), 0.01%”, “Tween-20, 1” for “Tween-20, 5”, “mM MnCl2, 20” for “mM Na3VO4, 2 mM EGTA, 10”
The cMET protein was diluted to a concentration of 263 nM in a cMET storage buffer (50 mM Tris-HCl (pH 7.5), 150 mM NaCl, 0.05% Brij35, 1 mM DTT, 10% Glycerol), and then diluted again to a concentration of 2 nM in a 1× kinase reaction buffer. As a substrate cocktail, a MET-specific substrate mixed solution (5 uM TK peptide, 10 mM ATP) was prepared at a concentration 2 times the final reaction concentration.
as §2
as §3, with “of 2” for “of 0.4”, “nM cMET” for “nM RON”, “the 1×kinase” for “the 1× kinase”, “of 90” for “of 30”

Sequence of cMET (P08581 25-1390): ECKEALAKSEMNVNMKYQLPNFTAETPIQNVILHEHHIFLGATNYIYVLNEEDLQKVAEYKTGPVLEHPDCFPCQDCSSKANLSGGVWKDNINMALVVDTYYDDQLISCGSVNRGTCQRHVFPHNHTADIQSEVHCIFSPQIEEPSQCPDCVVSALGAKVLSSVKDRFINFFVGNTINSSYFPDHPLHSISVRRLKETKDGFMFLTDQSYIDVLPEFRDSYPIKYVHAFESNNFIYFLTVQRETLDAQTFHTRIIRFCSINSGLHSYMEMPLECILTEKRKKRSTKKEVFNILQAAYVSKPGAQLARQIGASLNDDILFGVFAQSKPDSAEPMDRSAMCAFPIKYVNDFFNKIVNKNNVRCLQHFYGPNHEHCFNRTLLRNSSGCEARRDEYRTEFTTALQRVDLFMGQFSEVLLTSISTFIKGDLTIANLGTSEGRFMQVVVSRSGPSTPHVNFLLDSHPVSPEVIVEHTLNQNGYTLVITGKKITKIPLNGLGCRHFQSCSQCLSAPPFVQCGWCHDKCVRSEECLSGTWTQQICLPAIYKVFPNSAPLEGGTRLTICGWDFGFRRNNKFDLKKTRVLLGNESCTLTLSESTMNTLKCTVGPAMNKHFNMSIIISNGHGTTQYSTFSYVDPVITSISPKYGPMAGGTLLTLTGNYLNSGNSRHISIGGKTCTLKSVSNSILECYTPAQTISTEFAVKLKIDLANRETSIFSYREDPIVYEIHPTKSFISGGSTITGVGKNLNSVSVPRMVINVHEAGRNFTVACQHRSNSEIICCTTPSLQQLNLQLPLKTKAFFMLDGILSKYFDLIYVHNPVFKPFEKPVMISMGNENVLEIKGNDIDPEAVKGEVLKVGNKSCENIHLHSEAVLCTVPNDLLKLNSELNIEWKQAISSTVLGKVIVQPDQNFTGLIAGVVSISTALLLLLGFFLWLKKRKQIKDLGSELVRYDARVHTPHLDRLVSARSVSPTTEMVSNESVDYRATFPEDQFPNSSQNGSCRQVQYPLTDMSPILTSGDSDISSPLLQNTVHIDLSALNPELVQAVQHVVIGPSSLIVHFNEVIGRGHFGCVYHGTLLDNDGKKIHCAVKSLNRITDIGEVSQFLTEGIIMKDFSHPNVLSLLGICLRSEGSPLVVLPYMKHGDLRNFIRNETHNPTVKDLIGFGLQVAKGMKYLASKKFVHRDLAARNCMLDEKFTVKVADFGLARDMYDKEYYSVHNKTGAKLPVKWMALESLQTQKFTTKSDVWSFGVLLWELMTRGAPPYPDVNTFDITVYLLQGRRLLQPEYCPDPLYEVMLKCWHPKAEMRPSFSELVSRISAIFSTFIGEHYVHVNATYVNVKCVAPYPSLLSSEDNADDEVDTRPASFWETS
Sequence of RON (Q04912 25-1400, species assumed): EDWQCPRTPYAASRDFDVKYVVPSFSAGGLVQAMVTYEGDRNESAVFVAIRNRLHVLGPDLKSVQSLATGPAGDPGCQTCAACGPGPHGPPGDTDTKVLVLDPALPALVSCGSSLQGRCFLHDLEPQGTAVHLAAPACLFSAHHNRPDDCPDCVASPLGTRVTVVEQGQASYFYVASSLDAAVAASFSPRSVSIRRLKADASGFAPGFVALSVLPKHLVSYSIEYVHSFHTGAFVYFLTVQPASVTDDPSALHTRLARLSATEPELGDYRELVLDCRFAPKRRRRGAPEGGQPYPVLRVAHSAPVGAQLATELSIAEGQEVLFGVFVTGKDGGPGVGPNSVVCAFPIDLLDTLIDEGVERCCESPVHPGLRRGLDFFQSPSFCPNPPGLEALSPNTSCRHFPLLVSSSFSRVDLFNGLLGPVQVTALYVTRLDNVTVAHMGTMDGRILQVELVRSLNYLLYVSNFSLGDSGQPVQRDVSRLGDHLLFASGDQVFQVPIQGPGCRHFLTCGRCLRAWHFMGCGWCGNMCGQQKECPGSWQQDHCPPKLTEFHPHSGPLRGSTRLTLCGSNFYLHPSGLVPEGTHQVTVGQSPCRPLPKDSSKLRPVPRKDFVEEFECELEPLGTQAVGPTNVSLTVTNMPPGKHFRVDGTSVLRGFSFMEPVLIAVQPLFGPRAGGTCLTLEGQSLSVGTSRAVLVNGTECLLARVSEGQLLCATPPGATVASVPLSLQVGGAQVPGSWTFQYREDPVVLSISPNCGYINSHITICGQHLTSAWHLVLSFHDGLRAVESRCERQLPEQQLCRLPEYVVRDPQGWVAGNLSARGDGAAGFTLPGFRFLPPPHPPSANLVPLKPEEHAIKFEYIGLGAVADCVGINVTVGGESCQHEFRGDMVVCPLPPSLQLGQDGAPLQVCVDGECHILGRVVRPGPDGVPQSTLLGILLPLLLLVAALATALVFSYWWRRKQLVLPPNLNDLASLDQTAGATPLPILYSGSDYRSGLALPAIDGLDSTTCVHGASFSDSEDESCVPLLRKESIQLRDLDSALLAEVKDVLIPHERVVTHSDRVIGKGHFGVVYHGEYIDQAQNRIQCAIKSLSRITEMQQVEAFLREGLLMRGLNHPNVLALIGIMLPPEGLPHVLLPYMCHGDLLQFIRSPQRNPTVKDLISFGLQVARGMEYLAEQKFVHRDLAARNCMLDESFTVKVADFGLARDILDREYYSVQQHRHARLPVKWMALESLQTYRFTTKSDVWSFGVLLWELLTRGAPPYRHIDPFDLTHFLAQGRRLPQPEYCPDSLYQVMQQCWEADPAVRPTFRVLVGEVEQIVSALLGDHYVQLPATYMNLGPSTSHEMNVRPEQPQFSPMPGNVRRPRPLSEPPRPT

Row | SMILES | IC50 (RON) | IC50 (cMET)
1 | Nc1nccc(Oc2ccc(NC(=O)c3ncn(-c4ccccc4)c3C(F)(F)F)cc2F)c1Cl [Example 1, N-(4-((2-amino-3-chloropyridin-4-yl)oxy)-3-fluorophenyl)-1-phenyl-5-(trifluoromethyl)-1H-imidazole-4-carboxamide] | < 50 nM | 500 to 5000 nM
2 | Nc1nccc(Oc2ccc(NC(=O)c3cnn(-c4ccccc4)c3C(F)(F)F)cc2F)c1Cl [Example 2, N-(4-((2-amino-3-chloropyridin-4-yl)oxy)-3-fluorophenyl)-1-phenyl-5-(trifluoromethyl)-1H-pyrazole-4-carboxamide] | < 50 nM | 500 to 5000 nM
3 | Cc1c(C(=O)Nc2ccc(Oc3ccnc(N)c3Cl)c(F)c2)cnn1-c1ccccc1 [Example 3, N-(4-((2-amino-3-chloropyridin-4-yl)oxy)-3-fluorophenyl)-5-methyl-1-phenyl-1H-pyrazole-4-carboxamide] | 50 to 500 nM | 50 to 500 nM
4 | Cc1nn(-c2ccccc2)c(C)c1C(=O)Nc1ccc(Oc2ccnc(N)c2Cl)c(F)c1 [Example 4, N-(4-((2-amino-3-chloropyridin-4-yl)oxy)-3-fluorophenyl)-3,5-dimethyl-1-phenyl-1H-pyrazole-4-carboxamide] | 50 to 500 nM | > 5000 nM
5 | CCc1c(C(=O)Nc2ccc(Oc3ccnc(N)c3Cl)c(F)c2)cnn1-c1ccccc1 [Example 5, N-(4-((2-amino-3-chloropyridin-4-yl)oxy)-3-fluorophenyl)-5-ethyl-1-phenyl-1H-pyrazole-4-carboxamide] | 50 to 500 nM | 500 to 5000 nM
6 | Nc1nccc(Oc2ccc(NC(=O)c3cnn(-c4ccccc4)c3C(F)F)cc2F)c1Cl [Example 6, N-(4-((2-amino-3-chloropyridin-4-yl)oxy)-3-fluorophenyl)-5-(difluoromethyl)-1-phenyl-1H-pyrazole-4-carboxamide] | 50 to 500 nM | > 5000 nM
7 | Nc1nccc(Oc2ccc(NC(=O)c3cnn(-c4ccccc4)c3)cc2F)c1Cl [Example 7, N-(4-((2-amino-3-chloropyridin-4-yl)oxy)-3-fluorophenyl)-1-phenyl-1H-pyrazole-4-carboxamide] | 500 to 5000 nM | > 5000 nM
8 | Nc1nccc(Oc2ccc(NC(=O)c3cnn(C4CCCOC4)c3C(F)(F)F)cc2F)c1Cl (stereo not drawn) [Example 8, N-(4-((2-amino-3-chloropyridin-4-yl)oxy)-3-fluorophenyl)-1-(tetrahydro-2H-pyran-3-yl)-5-(trifluoromethyl)-1H-pyrazole-4-carboxamide] | 50 to 500 nM | 500 to 5000 nM
9 | Cn1ncc(C(=O)Nc2ccc(Oc3ccnc(N)c3Cl)c(F)c2)c1C(F)F [Example 9, N-(4-((2-amino-3-chloropyridin-4-yl)oxy)-3-fluorophenyl)-5-(difluoromethyl)-1-methyl-1H-pyrazole-4-carboxamide] | 500 to 5000 nM | > 5000 nM
10 | Nc1nccc(Oc2ccc(NC(=O)c3cnn(-c4ccccc4)c3N)cc2F)c1Cl [Example 10, 5-amino-N-(4-((2-amino-3-chloropyridin-4-yl)oxy)-3-fluorophenyl)-1-phenyl-1H-pyrazole-4-carboxamide] | 500 to 5000 nM | > 5000 nM
11 | Nc1nccc(Oc2ccc(NC(=O)c3cnn(-c4ccc(F)cc4)c3C(F)(F)F)cc2F)c1Cl [Example 11, N-(4-((2-amino-3-chloropyridin-4-yl)oxy)-3-fluorophenyl)-1-(4-fluorophenyl)-5-(trifluoromethyl)-1H-pyrazole-4-carboxamide] | 500 to 5000 nM | > 5000 nM
12 | Nc1nccc(Oc2ccc(NC(=O)c3cnn(-c4ccccc4F)c3C(F)(F)F)cc2F)c1Cl [Example 12, N-(4-((2-amino-3-chloropyridin-4-yl)oxy)-3-fluorophenyl)-1-(2-fluorophenyl)-5-(trifluoromethyl)-1H-pyrazole-4-carboxamide] | 50 to 500 nM | 500 to 5000 nM
13 | Nc1nccc(Oc2ccc(NC(=O)c3cnn(Cc4ccccc4)c3C(F)(F)F)cc2F)c1Cl [Example 13, N-(4-((2-amino-3-chloropyridin-4-yl)oxy)-3-fluorophenyl)-1-benzyl-5-(trifluoromethyl)-1H-pyrazole-4-carboxamide] | 500 to 5000 nM | 500 to 5000 nM
14 | Cc1nc(C(=O)Nc2ccc(Oc3ccnc(N)c3Cl)c(F)c2)c(C)n1-c1ccccc1 [Example 14, N-(4-((2-amino-3-chloropyridin-4-yl)oxy)-3-fluorophenyl)-2,5-dimethyl-1-phenyl-1H-imidazole-4-carboxamide] | 50 to 500 nM | 500 to 5000 nM
15 | Cc1ccc(-n2ncc(C(=O)Nc3ccc(Oc4ccnc(N)c4Cl)c(F)c3)c2C(F)(F)F)cc1 [Example 15, N-(4-((2-amino-3-chloropyridin-4-yl)oxy)-3-fluorophenyl)-1-(p-tolyl)-5-(trifluoromethyl)-1H-pyrazole-4-carboxamide] | > 5000 nM | 500 to 5000 nM
16 | COc1ccccc1-n1ncc(C(=O)Nc2ccc(Oc3ccnc(N)c3Cl)c(F)c2)c1C(F)(F)F [Example 16, N-(4-((2-amino-3-chloropyridin-4-yl)oxy)-3-fluorophenyl)-1-(2-methoxyphenyl)-5-(trifluoromethyl)-1H-pyrazole-4-carboxamide] | 50 to 500 nM | > 5000 nM
17 | CC(C)(C)n1ncc(C(=O)Nc2ccc(Oc3ccnc(N)c3Cl)c(F)c2)c1C(F)(F)F [Example 17, N-(4-((2-amino-3-chloropyridin-4-yl)oxy)-3-fluorophenyl)-1-(tert-butyl)-5-(trifluoromethyl)-1H-pyrazole-4-carboxamide] | 50 to 500 nM | 500 to 5000 nM
18 | Nc1nccc(Oc2ccc(NC(=O)c3cnn(-c4ccccc4)c3Cl)cc2F)c1Cl [Example 18, N-(4-((2-amino-3-chloropyridin-4-yl)oxy)-3-fluorophenyl)-5-chloro-1-phenyl-1H-pyrazole-4-carboxamide] | 50 to 500 nM | 500 to 5000 nM
19 | Nc1nccc(Oc2ccc(NC(=O)c3cnn(-c4ccccc4)c3-c3ccccc3)cc2F)c1Cl [Example 19, N-(4-((2-amino-3-chloropyridin-4-yl)oxy)-3-fluorophenyl)-1,5-diphenyl-1H-pyrazole-4-carboxamide] | 50 to 500 nM | 500 to 5000 nM
20 | Nc1nccc(Oc2ccc(NC(=O)c3cnn(-c4ccccc4)c3F)cc2F)c1Cl [Example 20, N-(4-((2-amino-3-chloropyridin-4-yl)oxy)-3-fluorophenyl)-5-fluoro-1-phenyl-1H-pyrazole-4-carboxamide] | 50 to 500 nM | > 5000 nM
21 | C=CC(=O)Nc1nccc(Oc2ccc(NC(=O)c3ncn(-c4ccccc4)c3C(F)(F)F)cc2F)c1Cl [Example 21] | 50 to 500 nM | > 5000 nM
22 | C=CC(=O)N(C(=O)C=C)c1nccc(Oc2ccc(NC(=O)c3ncn(-c4ccccc4)c3C(F)(F)F)cc2F)c1Cl [Example 22] | 50 to 500 nM | > 5000 nM
23 | O=C(Nc1ccc(Oc2ccnc(NC(=O)C3CC3)c2Cl)c(F)c1)c1ncn(-c2ccccc2)c1C(F)(F)F [Example 23] | 50 to 500 nM | > 5000 nM
24 | O=C(Nc1ccc(Oc2ccnc(Cl)c2)c(F)c1)c1ncn(-c2ccccc2)c1C(F)(F)F [Example 24] | > 5000 nM | > 5000 nM
